No end group written: not given here.
Assays:
[1] = In vivo CSF accumulation and brain distribution of dye-labeled MTS after IV tail vein injection; parameters: species or system rat; conditions: for amount present relative to MTS_CPEC4_V2 / distribution in brain (fluorescence imaging of coronal slices): rat, IV tail vein; for amount present relative to MTS_CPEC4_V2: CSF, dimeric peptide, fold higher than MTS_CPEC4_V2; for distribution in brain (fluorescence imaging of coronal slices): dye-labeled MTS
Experimental: (§1) The MTS is labeled with a dye that allows us to visualize its location. It is injected IV into the tail vein of a rat. After the indicated time, the CSF is isolated from the cisterna magna. The brain is harvested. After a fixation period, the brain is sliced in 1 mm coronal segments (front to back). The individual slices of the brain are imaged using fluorescence to locate the regions of peptide accumulation.
as §1, with “Dimeric MTS_Z310-5 is present in an amount 3× higher than MTS_CPEC4_V2 (FIG. 26). […] The MTS” for “The MTS”, “of peptide accumulation” for “of peptide accumulation.”
as §1, with “Dimeric MTS_Z310-2 is present in an amount 9× higher than MTS_CPEC4_V2 (FIG. 27). […] The MTS” for “The MTS”, “of peptide accumulation” for “of peptide accumulation.”

[2] = tested on: rat choroid plexus epithelial cells (Z310); assay: Transwell transport across rat choroid plexus epithelial cells (Z310); assay type: cell-based
Experimental: FIG. 15 is an in vitro transwell assay used to determine the ability of the MTS_CPEC4 phage clone or peptide to cross a choroid plexus barrier model derived from a Rat (Z310) cells). The amount of input placed on one side of the barrier (the “blood” side) and the amount that passes through the cells to the other side (the CSF side) is measured. The top table represents the data for the phage clone. The empty phage has no MTS peptide attached. The amount of phage in each side of the transwell is determined by bacterial titering. The bottom table represents the data for the synthetic peptide. Here the peptide is labeled with a fluorophore so the peptide on either side of the barrier can be measured. Dextran-dye (such as Alexa Fluor 488) is used as a control molecule. This molecule should not pass through the transwell and assures that the choroid plexus model is valid.
Other lead MTS peptides were examined using a transwell transport set up with rat choroid plexus cells (FIG. 24). Eight phage clones were enriched in the CSF. Individual phage clones were then tested for transcytosis in vitro on Z310 choroid plexus cells and CSF accumulation in rats. MTS_Z310-2 (SEQ ID NO:4) and MTS_Z310-5 (SEQ ID NO:7) phage clones were carried forward for further evaluation. […] The 20% transport is better than that seen with CPEC4. […]

[3] = Serum stability of MTS peptide; assay type: in vitro ADME; conditions: read-out: peptide remains intact
Experimental: The stability of the different MTS sequences is important. […] 80% of the peptide remains intact at 24 hours. Modifications were mapped by MS.

[4] = tested on: choroid plexus cells; assay: Transport across monolayer of choroid plexus cells with dye or streptavidin cargo (FIG. 21); assay type: cell-based; conditions: chemical (AF647 dye) and protein (50 kDa Streptavidin) cargoes
Text: The integrity of the monolayer with tight junctions is observed by the lack of diffusion or transport of low a molecular weight dye (750) maleimide), a 10 kDa dextran polymer, or larger protein (50 kDa). In the SA conjugate, the MTS has a biotin in the core structure. The biotin is then conjugated to a streptavidin protein labeled with a fluorophore.

[5] = tested on: human primary choroid plexus epithelial cells; assay: Transwell transport of fluorescent protein cargo across human choroid plexus in vitro model; assay type: cell-based
Text: A rat model was developed as well. Selection to identify a phage clone from the library that crosses the choroid plexus epithelial barrier has also been informed. […] The phage clone was transported into the CSF selectively and data supported similar transport for the MTS peptide.
FIG. 13 represents a dimer of the CPEC4 peptide. The CPEC4 peptide was synthesized as a dimer and having a biotin handle that allows for attachment of fluorescently labeled proteins.
6-9% of the protein is transported across the cell layer. Tight junctions remain intact as witnessed by lack of dextran transport and maintenance of transepithelial resistance at the end of the experiment.

[6] = tested on: choroid plexus epithelial cell layer; assay: Phage clone transport through human choroid plexus cells in vitro (FIG. 12); assay type: cell-based; conditions: phage-displayed peptide
Experimental: CPEC4_Phage clone sequence […] (SEQ ID NO:2) was the lead peptide sequence in these studies. CPEC4 phage clone is enriched as multiple rounds of panning were performed. CPEC4 phage clone is selected from the transwell indicating transport and release.
The phage clone remains viable during the cellular transport.

Question: For “Dimeric MTS_Z310-2: comprises two MTS peptides each having the sequence FPSWTSKNQQWTNQRQ (SEQ ID NO:4) (also: dimer, linkage not given here)”, which “amount present relative to MTS_CPEC4_V2” value [1] is on record?
Answer: 9 ×

Question: What about the “distribution in brain (fluorescence imaging of coronal slices)” value [1] of the same compound?
Answer: distributed throughout the ventricular system

Question: Which “transport of protein cargo” value [2] does the source give for “FPSWTSKNQQWTNQRQ (molecular transport peptide) [MTS_Z310-2]” here?
Answer: 20%

Question: Which results are given for “Dimeric MTS_Z310-5: comprises two MTS peptides each having the sequence SKETYSMNAQRQHERS (SEQ ID NO:7) (also: dimer, linkage not given here)”?
Answer: amount present relative to MTS_CPEC4_V2 [1]: 3 ×; distribution in brain (fluorescence imaging of coronal slices) [1]: distributed throughout the ventricular system of the brain

Question: With “MTS_CPEC4_V2 (SEQ ID NO: 1) dimers: comprises two MTS peptides each having the sequence DAYKLQTSLDWQMWNP (SEQ ID NO: 1) (also: dimer, linkage not given here)” as the compound, how does the “distribution in brain (fluorescence imaging of coronal slices)” value [1] read?
Answer: distributed throughout the ventricular system of the brain

Question: Which remaining at 24 h [3] does the source give for `CSCC[C@H](NC(=O)[C@H](CCC(N)=O)NC(=O)[C@H](Cc1c[nH]c2ccccc12)NC(=O)[C@H](CC(=O)O)NC(=O)[C@H](CC(C)C)NC(=O)[C@H](CO)NC(=O)[C@@H](NC(=O)[C@H](CCC(N)=O)NC(=O)[C@H](CC(C)C)NC(=O)[C@H](CCCCN)NC(=O)[C@H](Cc1ccc(O)cc1)NC(=O)[C@H](C)NC(=O)[C@H](CC(=O)O)NC(C)=O)[C@@H](C)O)C(=O)N[C@@H](Cc1c[nH]c2ccccc12)C(=O)N[C@@H](CC(N)=O)C(=O)N1CCC[C@H]1C(=O)NCCOCCOCCOCCOCCOCCOCCOCCOCCOCCOCCOCCC(N)=O` [MTS-CPEC4_V2] here?
Answer: 80%

Question: And the “accumulation in the CSF” value ([1]; rats, tail vein injection)?
Answer: accumulating in the CSF

Question: And the “transport across monolayer of choroid plexus cells” value [4]?
Answer: efficiently transported

Question: With “SKETYSMNAQRQHERS (molecular transport peptide) [MTS_Z310-5]” as the compound, how does the “transport of protein cargo” value [2] read?
Answer: 20%

Question: For “DGYKLQTSLDWQMWNP (molecular transport peptide) [MTS_CPEC4_V1]”, which “protein transported across the cell layer” value [5] is on record?
Answer: 6-9%

Question: And the “transport across monolayer of choroid plexus cells” value [4]?
Answer: efficiently transported

Question: And the “transport of phage particle across choroid plexus epithelial cell layer” value [6]?
Answer: mediates transport of a large phage particle across choroid plexus epithelial cell layer
